Results as given in patent US8952025B2, “Multifunctional radical quenchers and their uses” (Arizona Board of Regents, A Body Corporate of the State of …, priority 2010, dated 2015).
Entries after “also recorded” stand apart in the source; their conditions may differ.

Assays:
[1] = tested on: cytochrome c; assay: Cytochrome c reduction assay; format: biochemical; conditions: 100 μM compound, 10 μM cytochrome c, absorbance 550 nm
Description: The rate of cytochrome c (10 μM) reduction was measured by monitoring the change in absorbance at 550 nm. Briefly the reaction was initiated by addition of 100 μM of the invention compounds to a mixture containing 50 mM phosphate buffer, 0.1 mM EDTA, pH 7.8, and 10 μM cytochrome c (Sigma, St. Louis, Mo. USA). For cytochrome c reduction by superoxide, xanthine oxidase (0.01 IU/mL) (Sigma, St. Louis, Mo. USA) was used in presence of xanthine (50 μM).

[2] = tested on: Human CEM leukemia cells; assay: Live/Dead Viability/Cytotoxicity flow cytometry assay; format: cell-based; conditions: overnight incubation, then DEM 3 hours
Description: Cell viability and cytotoxicity were determined by simultaneous staining live and dead cells using a two-color fluorescence assay, the Live/Dead® Viability/Cytotoxicity Kit (Molecular Probes). This assay is used to measure two recognized parameters of cell viability, intracellular esterase activity and plasma integrity. The membrane-impermeant DNA dye ethidium homodimer-1 (EthD-1) was used to identify dead cells whose plasma membrane integrity was disrupted. The membrane-permeant dye calcein-AM was used to label live cells. It penetrates into the cells where it is metabolized by cytoplasmic esterases and becomes a fluorescent but membrane-impermeant probe which is retained in viable cells. Human CEM leukemia cells were incubated overnight in RPMI medium (control) and in the presence of test compound and then treated with DEM for 3 hours. Cells were stained with 0.2 μM calcein-AM and 0.4 μM EthD-1. After 15 minutes, flow cytometry analysis was carried out using excitation at 488 nm. The green-fluorescent (539 nm) FL1-H channel, live-cell population appears in the lower right quadrant and the red-fluorescent (585 nm) FL2-H channel dead-cell population appears in the upper left quadrant (FIG. 11). In each analysis, 10,000 events were recorded. Results obtained were verified in three independent experiments.

[3] = tested on: CEM leukemia cells; assay: C11-BODIPY581/591 oxidation in cell culture (lipid peroxidation); format: cell-based, human; conditions: 2.5 or 1 μM, pretreatment 4 or 24 hours, glutathione depleted
Description: Lipid peroxidation in CEM leukemia cells was detected by utilizing the oxidant-sensitive lipophilic probe C11 BODIPY^581/591. Briefly, CEM cells (5×10^5 cell/mL) were treated with the test compounds at final concentrations of 1 and 2.5 μM, and incubated at 37° C. for 4 or 24 h in a humidified atmosphere containing 5% CO2 in air. Cells were treated with 500 nM C11 BODIPY^581/591 in phenol red-free RPMI-1640 media and incubated at 37° C. in the dark for 30 minutes. The cells were washed twice with phosphate buffered saline and oxidative stress was induced with 5 mM DEM in phenol red-free RPMI-1640 media for 90 minutes. Treated cells were collected by centrifugation at 300×g for 3 minutes and then washed twice with phosphate buffered saline. Cells were resuspended in 250 μL of phosphate buffered saline and were analyzed by FACS (FACS Calibur flow cytometer, Becton Dickinson) to monitor the change in intensity of the C11 BODIPY^581/591-green (oxidized) fluorescence signal.

[4] = Stability of isolated free base on storage; format: physicochemical; conditions: orange oil
Description: To a solution of 2.2 mg (4.4 μmol) acetyl ester 35 in 1 mL CH2Cl2 was added 17.5 μL (17.5 μmol) of DIBAL-H at −78° C. The reaction mixture was stirred at same temperature for 2 h than 1 mL of aqueous saturated sodium potassium tartrate was added slowly. The reaction mixture was allowed to warm to room temperature slowly add stirred for 3 h then separated. The aqueous layer was extracted with two portions of 5 mL of ethyl acetate. The combined organic layer was washed with brine, dried (Na2SO4) and concentrated under diminished pressure to give the product C as orange oil. HPLC found retain time in 21.82 min.

[5] = tested on: bovine heart mitochondrial membranes; assay: Thiobarbituric acid reactive species (TBARS) assay; format: biochemical; conditions: H2O2 generated using glucose oxidase
Description: Lipid peroxidation by hydrogen peroxide in bovine heart mitochondrial membranes was determined by measuring the amount of thiobarbituric acid reactive substances released. Bovine heart mitochondria (1 mg protein) prepared as described by Smith (38) were added to 800 μL of 50 mM phosphate buffer, pH 8.0, and subjected to oxidative stress by the addition of 25 mM glucose and 1 U/mL glucose oxidase from Aspergillus niger. Samples were incubated with or without test compounds at 37° C. for 30 minutes. Two hundred μL each of 1% (w/v) thiobarbituric acid and 35% (v/v) perchloric acid, as well as 0.1% (w/v) butylated hydroxytoluene (from a 2% stock solution in DMSO) were added. Samples were heated at 100° C. for 15 minutes. One-mL aliquots of each sample were taken and diluted in 2 mL of water, then extracted once with 2 mL of n-butanol. […] TBARS were determined fluorometrically from the emission spectrum (λex 515 nm; λem 550 nm) using a Varian fluorimeter. The malondialdehyde concentration was determined based on a standard curve created using serial dilutions of 10 mM 1,1,3,3-tetraethoxypropane hydrolyzed in 1% (v/v) H2SO4 at 4° C. overnight. The malondialdehyde concentration was expressed as nmoles manoldialdehyde per mg protein. Protein in aliquots of the homogenates was determined by the bicinchoninic acid method.

SMILES	reduction of cytochrome c [1]	maintaining cell viability (Live/Dead kit, flow cytometry) [2]	protection against lipid peroxidation in cells (C11-BODIPY581/591 green fluorescence) [3]	stability of isolated compound [4]	preventing TBARS formation [5]
Cc1nc(N(C)C)nc(CCCCCCCCCCO)c1O [Compound A, 2-N,N-dimethylamino-5-hydroxy-4-methyl-6-(10-hydroxydecyl)-pyrimidine]	clearly reduce cytochrome c				
Cc1nc2c(c(CC[C@](C)(O)CCC[C@H](C)CCC[C@H](C)CCCC(C)C)c1O)CCN2C [Compound C, 4-((3R,7R,11R)-3-hydroxy-3,7,11,15-tetramethylhexadecyl)-1,6-dimethyl-2,3-dihydro-1H-pyrrolo[2,3-b]pyridine-5-ol]		both effective in maintaining cell viability following treatment with DEM, with compound C being somewhat more effective; also recorded: superiority of compound C	better protection against lipid peroxidation than α-tocopherol in a concentration and time-dependent fashion; also recorded: clearly superior to α-tocopherol in quenching lipid peroxidation in a time- and dose-dependent fashion	degenerated after one day	more effective in preventing TBARS formation
Cc1c(C)c2c(c(C)c1O)CC[C@@](C)(CCC[C@H](C)CCC[C@H](C)CCCC(C)C)O2 [α-tocopherol, reference compound]		effective in maintaining cell viability following treatment with DEM			
